One test concerns the target CK1ε (Homo sapiens (Human), UniProt P49674). The test can be described thus: CK1ε kinase assay (Caliper LABCHIP electrophoretic separation of fluoresceinated peptide substrate and product). The class given is biochemical. The conditions noted are these: 200 pM CK1ε, 50 μM ATP, 1.5 μM peptide substrate, 22 hours at room temperature; read-out: CK1ε (IC50). In outline:
(§1)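 Incubated for twenty-two hours at ambient temperature, then quenched with EDTA and analyzed by electrophoretic separation of unphosphorylated and phosphorylated peptide.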

The target of a further test is CK1δ (Homo sapiens (Human), UniProt P48730). Description: CK1δ kinase assay (Caliper LABCHIP electrophoretic separation of fluoresceinated peptide substrate and product). The test is classed as biochemical. As to conditions: 200 pM CK1δ, 50 μM ATP, 1.5 μM peptide substrate, 22 hours at room temperature; read-out: CK1δ (IC50). In a few lines:
as §1

Usually IC50 stands for the concentration that gives 50% inhibition.

Chain of CK1δ (P48730 whole entry): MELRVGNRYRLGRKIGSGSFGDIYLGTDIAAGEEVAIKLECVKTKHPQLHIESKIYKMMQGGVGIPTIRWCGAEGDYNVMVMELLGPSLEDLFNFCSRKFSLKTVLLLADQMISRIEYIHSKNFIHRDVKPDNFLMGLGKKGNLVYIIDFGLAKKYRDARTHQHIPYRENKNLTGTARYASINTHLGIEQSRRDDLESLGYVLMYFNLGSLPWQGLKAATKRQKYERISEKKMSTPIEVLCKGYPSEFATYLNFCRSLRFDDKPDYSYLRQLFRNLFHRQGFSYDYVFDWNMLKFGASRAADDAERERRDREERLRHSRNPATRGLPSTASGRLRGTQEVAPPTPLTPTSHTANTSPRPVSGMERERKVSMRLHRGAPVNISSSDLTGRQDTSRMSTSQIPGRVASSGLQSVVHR
Chain of CK1ε (P49674 whole entry): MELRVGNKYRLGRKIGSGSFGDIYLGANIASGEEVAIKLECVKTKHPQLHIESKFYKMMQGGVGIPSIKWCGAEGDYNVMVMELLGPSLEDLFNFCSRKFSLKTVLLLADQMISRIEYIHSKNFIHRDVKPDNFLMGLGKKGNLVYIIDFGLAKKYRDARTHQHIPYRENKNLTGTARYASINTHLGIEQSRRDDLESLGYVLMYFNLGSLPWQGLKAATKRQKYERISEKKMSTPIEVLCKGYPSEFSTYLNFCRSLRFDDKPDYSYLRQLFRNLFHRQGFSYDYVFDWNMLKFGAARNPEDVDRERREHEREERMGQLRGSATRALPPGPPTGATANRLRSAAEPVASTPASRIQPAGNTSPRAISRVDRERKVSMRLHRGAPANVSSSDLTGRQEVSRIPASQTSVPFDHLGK

As for `NC(=O)c1c(-c2cc(Cl)c(F)c(Cl)c2)nn2c1CN(C(=O)Nc1ccc(F)c(F)c1)CC2` [Compound 260, 2-(3,5-Dichloro-4-fluorophenyl)-N^5-(3,4-difluorophenyl)-6,7-dihydropyrazolo[1,5-a] pyrazine-3,5(4H)-dicarboxamide], the IC50 on CK1ε and on CK1δ was 0.01 to 10 nM throughout.

Regarding `NC(=O)c1c(-c2cc(Cl)c(F)c(Cl)c2)nn2c1CN(C(=O)Nc1cc(Cl)cc(Cl)c1)CC2` [Compound 261, 2-(3,5-Dichloro-4-fluorophenyl)-N^5-(3,5-dichlorophenyl)-6,7-dihydropyrazolo[1,5-a] pyrazine-3,5(4H)-dicarboxamide], the IC50 at CK1ε and on CK1δ was 0.01 to 10 nM in each case.

As to `NC(=O)c1c(-c2cc(Cl)c(F)c(Cl)c2)nn2c1CN(C(=O)Nc1ccc(C(F)(F)F)cc1)CC2` [Compound 262, 2-(3,5-Dichloro-4-fluorophenyl)-N^5-(4-(trifluoromethyl)phenyl)-6,7-dihydropyrazolo[1,5-a]pyrazine-3,5(4H)-dicarboxamide], the IC50 on CK1ε and at CK1δ was 0.01 to 10 nM throughout.

`CN(C)c1cc(Cl)cc(-c2nn3c(c2C(N)=O)CN(C(=O)Nc2ccc(C#N)c(C(F)(F)F)c2)CC3)c1` [Compound 266, 2-(3-Chloro-5-(dimethylamino)phenyl)-N^5-(4-cyano-3-(trifluoromethyl)phenyl)-6,7-dihydropyrazolo[1,5-a]pyrazine-3,5(H)-dicarboxamide]: the 50% inhibitory concentration (IC50) at CK1ε and at CK1δ was 0.01 to 10 nM throughout.

For the compound `N#Cc1ccc(NC(=O)N2CCn3nc(-c4cncc(Cl)c4)c(C(N)=O)c3C2)cc1` [Compound 270, 2-(5-Chloropyridin-3-yl)-N^5-(4-cyanophenyl)-6,7-dihydropyrazolo[1,5-a]pyrazine-3,5(4H)-dicarboxamide], the IC50 at CK1ε and on CK1δ was 0.01 to 10 nM each time.

As to `N#Cc1ccc(NC(=O)N2CCn3nc(-c4cc(Cl)ccc4Cl)c(C(N)=O)c3C2)cc1` [Compound 272, N^5-(4-Cyanophenyl)-2-(2,5-dichlorophenyl)-6,7-dihydropyrazolo[1,5-a] pyrazine-3,5(4H)-dicarboxamide], the IC50 at CK1ε and on CK1δ was 0.01 to 10 nM in each case.

On to `N#Cc1ccc(NC(=O)N2CCn3nc(-c4cc(Cl)cc(Cl)c4)c(C(N)=O)c3C2)cc1` [Compound 273, N^5-(4-Cyanophenyl)-2-(3,5-dichlorophenyl)-6,7-dihydropyrazolo[1,5-a] pyrazine-3,5(4H)-dicarboxamide], for which the IC50 at CK1ε and on CK1δ was 0.01 to 10 nM throughout.

In the case of `CS(=O)(=O)Nc1cccc(-c2nn3c(c2C(N)=O)CN(C(=O)Nc2ccc(C#N)cc2)CC3)c1` [Compound 274, N^5-(4-Cyanophenyl)-2-(3-(methylsulfonamido)phenyl)-6,7-dihydropyrazolo[1,5-a] pyrazine-3,5(4H)-dicarboxamide], the IC50 at CK1ε and at CK1δ was 100 to 2000 nM throughout.

Regarding `Cc1cc(C)cc(-c2nn3c(c2C(N)=O)CN(C(=O)Nc2ccc(C#N)cc2)CC3)c1` [Compound 275, N^5-(4-Cyanophenyl)-2-(3,5-dimethylphenyl)-6,7-dihydropyrazolo[1,5-a] pyrazine-3,5(4H)-dicarboxamide], the IC50 on CK1ε and at CK1δ was 0.01 to 10 nM each time.

With `N#Cc1ccc(NC(=O)N2CCn3nc(-c4ccc5c(c4)OCO5)c(C(N)=O)c3C2)cc1` [Compound 277, 2-(Benzo[d][1,3]dioxol-5-yl)-N^5-(4-cyanophenyl)-6,7-dihydropyrazolo[1,5-a] pyrazine-3,5(4H)-dicarboxamide], the IC50 at CK1ε was 0.01 to 10 nM; at CK1δ, 10 to 100 nM.

For `COc1ccc(Cl)cc1-c1nn2c(c1C(N)=O)CN(C(=O)Nc1ccc(C#N)cc1)CC2` [Compound 278, 2-(5-Chloro-2-methoxyphenyl)-N^5-(4-cyanophenyl)-6,7-dihydropyrazolo[1,5-a] pyrazine-3,5(4H)-dicarboxamide], the IC50 on CK1ε and at CK1δ was 10 to 100 nM each time.

Turning to `CN(C)c1cccc(-c2nn3c(c2C(N)=O)CN(C(=O)Nc2ccc(C#N)cc2)CC3)c1` [Compound 279, N^5-(4-Cyanophenyl)-2-(3-(dimethylamino)phenyl)-6,7-dihydropyrazolo[1,5-a] pyrazine-3,5(4H)-dicarboxamide], the IC50 on CK1ε and at CK1δ was 0.01 to 10 nM throughout.

Regarding `COc1cc(-c2nn3c(c2C(N)=O)CN(C(=O)Nc2ccc(C#N)cc2)CC3)ccc1F` [Compound 280, N^5-(4-Cyanophenyl)-2-(4-fluoro-3-methoxyphenyl)-6,7-dihydropyrazolo[1,5-a] pyrazine-3,5(4H)-dicarboxamide], the half-maximal inhibitory concentration (IC50) at CK1ε and at CK1δ was 0.01 to 10 nM throughout.

Take `CSc1cccc(-c2nn3c(c2C(N)=O)CN(C(=O)Nc2ccc(C#N)cc2)CC3)c1` [Compound 281, N^5-(4-Cyanophenyl)-2-(3-(methylthio)phenyl)-6,7-dihydropyrazolo[1,5-a] pyrazine-3,5(4H)-dicarboxamide]: the half-maximal inhibitory concentration (IC50) on CK1ε and at CK1δ was 0.01 to 10 nM in each case.

Turning to `Cc1ccc(-c2nn3c(c2C(N)=O)CN(C(=O)Nc2ccc(C#N)cc2)CC3)cc1C` [Compound 282, N^5-(4-Cyanophenyl)-2-(3,4-dimethylphenyl)-6,7-dihydropyrazolo[1,5-a] pyrazine-3,5(4H)-dicarboxamide], the IC50 on CK1ε and on CK1δ was 0.01 to 10 nM each time.

Take `CN(C)C(=O)c1cccc(-c2nn3c(c2C(N)=O)CN(C(=O)Nc2ccc(C#N)cc2)CC3)c1` [Compound 283, N^5-(4-Cyanophenyl)-2-(3-(dimethylcarbamoyl)phenyl)-6,7-dihydropyrazolo[1,5-a] pyrazine-3,5(4H)-dicarboxamide]: the IC50 on CK1ε and on CK1δ was 100 to 2000 nM each time.

On to `N#Cc1ccc(NC(=O)N2CCn3nc(-c4cccc(OC(F)(F)F)c4)c(C(N)=O)c3C2)cc1` [Compound 284, N^5-(4-Cyanophenyl)-2-(3-(trifluoromethoxy)phenyl)-6,7-dihydropyrazolo[1,5-a] pyrazine-3,5(4H)-dicarboxamide], for which the 50% inhibitory concentration (IC50) on CK1ε and at CK1δ was 10 to 100 nM each time.

With `COc1cc(F)cc(-c2nn3c(c2C(N)=O)CN(C(=O)Nc2ccc(C#N)cc2)CC3)c1` [Compound 285, N^5-(4-Cyanophenyl)-2-(3-fluoro-5-methoxyphenyl)-6,7-dihydropyrazolo[1,5-a] pyrazine-3,5(4H)-dicarboxamide], the IC50 on CK1ε and on CK1δ was 0.01 to 10 nM throughout.

In the case of `CS(=O)(=O)c1cccc(-c2nn3c(c2C(N)=O)CN(C(=O)Nc2ccc(C#N)cc2)CC3)c1` [Compound 286, N^5-(4-Cyanophenyl)-2-(3-(methylsulfonyl)phenyl)-6,7-dihydropyrazolo[1,5-a] pyrazine-3,5(4H)-dicarboxamide], the IC50 on CK1ε and at CK1δ was 100 to 2000 nM in each case.

On to `N#Cc1ccc(NC(=O)N2CCn3nc(-c4cccc(Cl)c4Cl)c(C(N)=O)c3C2)cc1` [Compound 287, N^5-(4-Cyanophenyl)-2-(2,3-dichlorophenyl)-6,7-dihydropyrazolo[1,5-a] pyrazine-3,5(4H)-dicarboxamide], for which the 50% inhibitory concentration (IC50) at CK1ε lay within 0.01 to 10 nM; on CK1δ it was 10 to 100 nM.

`CC(=O)Nc1cccc(-c2nn3c(c2C(N)=O)CN(C(=O)Nc2ccc(C#N)cc2)CC3)c1` [Compound 288, 2-(3-Acetamidophenyl)-N^5-(4-cyanophenyl)-6,7-dihydropyrazolo[1,5-a] pyrazine-3,5(4H)-dicarboxamide]: the IC50 at CK1ε and on CK1δ was 100 to 2000 nM in each case.

In the case of `Cc1cccc(-c2nn3c(c2C(N)=O)CN(C(=O)Nc2ccc(C#N)cc2)CC3)c1` [Compound 289, N^5-(4-Cyanophenyl)-2-(m-tolyl)-6,7-dihydropyrazolo [1,5-a]pyrazine-3,5(4H)-dicarboxamide], the IC50 on CK1ε and on CK1δ was 0.01 to 10 nM each time.

For `CS(=O)(=O)c1ccc(-c2nn3c(c2C(N)=O)CN(C(=O)Nc2ccc(C#N)cc2)CC3)cc1` [Compound 290, N^5-(4-Cyanophenyl)-2-(4-(methylsulfonyl)phenyl)-6,7-dihydropyrazolo[1,5-a] pyrazine-3,5(4H)-dicarboxamide], the IC50 on CK1ε and on CK1δ was 100 to 2000 nM throughout.

With `N#Cc1ccc(NC(=O)N2CCn3nc(-c4ccc(F)c(F)c4)c(C(N)=O)c3C2)cc1` [Compound 291, N^5-(4-Cyanophenyl)-2-(3,4-difluorophenyl)-6,7-dihydropyrazolo[1,5-a] pyrazine-3,5(4H)-dicarboxamide], the IC50 at CK1ε and on CK1δ was 0.01 to 10 nM throughout.

Consider `N#Cc1ccc(NC(=O)N2CCn3nc(-c4cnc(F)c(Cl)c4)c(C(N)=O)c3C2)cc1` [Compound 293, 2-(5-Chloro-6-fluoropyridin-3-yl)-N^5-(4-cyanophenyl)-6,7-dihydropyrazolo[1,5-a] pyrazine-3,5(4H)-dicarboxamide], for which the IC50 on CK1ε and on CK1δ was 0.01 to 10 nM throughout.

As for `Cc1cc(NC(=O)N2CCn3nc(-c4cnc(F)c(Cl)c4)c(C(N)=O)c3C2)ccc1C#N` [Compound 294, 2-(5-Chloro-6-fluoropyridin-3-yl)-N^5-(4-cyano-3-methylphenyl)-6,7-dihydropyrazolo[1,5-a] pyrazine-3,5(4H)-dicarboxamide], the IC50 on CK1ε and at CK1δ was 0.01 to 10 nM throughout.

With `N#Cc1ccc(NC(=O)N2CCn3nc(-c4cnc(Cl)c(Cl)c4)c(C(N)=O)c3C2)cc1` [Compound 297, N^5-(4-Cyanophenyl)-2-(5,6-dichloropyridin-3-yl)-6,7-dihydropyrazolo[1,5-a]pyrazine-3,5(4H)-dicarboxamide], the IC50 at CK1ε and on CK1δ was 0.01 to 10 nM each time.

For `NC(=O)c1c(-c2cncc(Cl)c2)nn2c1CN(C(=O)Nc1ccc(Cl)c(Cl)c1)CC2` [Compound 299, 2-(5-Chloropyridin-3-yl)-N^5-(3,4-dichlorophenyl)-6,7-dihydropyrazolo[1,5-a]pyrazine-3,5(4H)-dicarboxamide], the IC50 at CK1ε and on CK1δ was 0.01 to 10 nM each time.

For the origin of these results see patent publication US9598423B2 (BRISTOL-MYERS SQUIBB COMPANY, priority 2013, dated 2017).
